Assay results as given in BigSolDB 2.1.

`CC[C@H](C)[C@H](N)C(=O)O` showed a solubility (mole fraction) (in 1,4-dioxane, 288.15 K) of 0.00118, a solubility (mole fraction) (in 1,4-dioxane, 293.15 K) of 0.00132 and a solubility (mole fraction) (in 1,4-dioxane, 298.15 K) of 0.00146. It also gave a solubility (mole fraction) (in 1,4-dioxane, 303.15 K) of 0.00172, a solubility (mole fraction) (in 1,4-dioxane, 308.15 K) of 0.00195 and a solubility (mole fraction) (in 1,4-dioxane, 313.15 K) of 0.00226. The solubility (mole fraction) (in 1,4-dioxane, 318.15 K) was 0.00258, the solubility (mole fraction) (in 1,4-dioxane, 323.15 K) was 0.00303 and the solubility (mole fraction) (in 1,4-dioxane, 328.15 K) was 0.00339. The solubility (mole fraction) (in 2-butanone, 283.15 K) was 0.000223, the solubility (mole fraction) (in 2-butanone, 288.15 K) was 0.000324 and the solubility (mole fraction) (in 2-butanone, 293.15 K) was 0.000415. For the same molecule, the solubility (mole fraction) (in 2-butanone, 298.15 K) was 0.000538, the solubility (mole fraction) (in 2-butanone, 303.15 K) was 0.000646 and the solubility (mole fraction) (in 2-butanone, 308.15 K) was 0.000819. For the same molecule, the solubility (mole fraction) (in 2-butanone, 313.15 K) was 0.000978, the solubility (mole fraction) (in 2-butanone, 318.15 K) was 0.00118 and the solubility (mole fraction) (in 2-butanone, 323.15 K) was 0.00145. For the same molecule, the solubility (mole fraction) (in acetone, 283.15 K) was 1.21e-05, the solubility (mole fraction) (in acetone, 288.15 K) was 1.47e-05 and the solubility (mole fraction) (in acetone, 293.15 K) was 1.82e-05. The solubility (mole fraction) (in acetone, 298.15 K) was 2.04e-05, the solubility (mole fraction) (in acetone, 303.15 K) was 3.19e-05 and the solubility (mole fraction) (in acetone, 308.15 K) was 4.37e-05. For the same molecule, the solubility (mole fraction) (in acetone, 313.15 K) was 6.14e-05, the solubility (mole fraction) (in acetone, 318.15 K) was 8.28e-05 and the solubility (mole fraction) (in acetone, 323.15 K) was 0.000132. The solubility (mole fraction) (in acetonitrile, 283.15 K) was 0.000153, the solubility (mole fraction) (in acetonitrile, 288.15 K) was 0.000185 and the solubility (mole fraction) (in acetonitrile, 293.15 K) was 0.000276. The solubility (mole fraction) (in acetonitrile, 298.15 K) was 0.000303, the solubility (mole fraction) (in acetonitrile, 303.15 K) was 0.000374 and the solubility (mole fraction) (in acetonitrile, 308.15 K) was 0.000451. For the same molecule, the solubility (mole fraction) (in acetonitrile, 313.15 K) was 0.000525, the solubility (mole fraction) (in acetonitrile, 318.15 K) was 0.000582 and the solubility (mole fraction) (in acetonitrile, 323.15 K) was 0.0007. For the same molecule, the solubility (mole fraction) (in ethanol, 283.15 K) was 0.000199, the solubility (mole fraction) (in ethanol, 288.15 K) was 0.000227 and the solubility (mole fraction) (in ethanol, 293.15 K) was 0.000285. For the same molecule, the solubility (mole fraction) (in ethanol, 298.15 K) was 0.000363, the solubility (mole fraction) (in ethanol, 303.15 K) was 0.000532 and the solubility (mole fraction) (in ethanol, 308.15 K) was 0.000716. The solubility (mole fraction) (in ethanol, 313.15 K) was 0.000881, the solubility (mole fraction) (in ethanol, 318.15 K) was 0.00101 and the solubility (mole fraction) (in ethanol, 323.15 K) was 0.00118. It also gave a solubility (mole fraction) (in ethyl acetate, 283.15 K) of 0.000398, a solubility (mole fraction) (in ethyl acetate, 288.15 K) of 0.000441 and a solubility (mole fraction) (in ethyl acetate, 293.15 K) of 0.000482. It also gave a solubility (mole fraction) (in ethyl acetate, 298.15 K) of 0.000544, a solubility (mole fraction) (in ethyl acetate, 303.15 K) of 0.000609 and a solubility (mole fraction) (in ethyl acetate, 308.15 K) of 0.000656. The solubility (mole fraction) (in ethyl acetate, 313.15 K) was 0.000722, the solubility (mole fraction) (in ethyl acetate, 318.15 K) was 0.000803 and the solubility (mole fraction) (in ethyl acetate, 323.15 K) was 0.000891. For the same molecule, the solubility (mole fraction) (in isobutanol, 283.15 K) was 0.00106, the solubility (mole fraction) (in isobutanol, 288.15 K) was 0.00125 and the solubility (mole fraction) (in isobutanol, 293.15 K) was 0.0015. The solubility (mole fraction) (in isobutanol, 298.15 K) was 0.00186, the solubility (mole fraction) (in isobutanol, 303.15 K) was 0.00216 and the solubility (mole fraction) (in isobutanol, 308.15 K) was 0.00246. It also gave a solubility (mole fraction) (in isobutanol, 313.15 K) of 0.00298, a solubility (mole fraction) (in isobutanol, 318.15 K) of 0.00346 and a solubility (mole fraction) (in isobutanol, 323.15 K) of 0.00394. It also gave a solubility (mole fraction) (in isopropanol, 283.15 K) of 0.00147, a solubility (mole fraction) (in isopropanol, 288.15 K) of 0.00173 and a solubility (mole fraction) (in isopropanol, 293.15 K) of 0.00207. It also gave a solubility (mole fraction) (in isopropanol, 298.15 K) of 0.00241, a solubility (mole fraction) (in isopropanol, 303.15 K) of 0.00285 and a solubility (mole fraction) (in isopropanol, 308.15 K) of 0.0034. The solubility (mole fraction) (in isopropanol, 313.15 K) was 0.00394, the solubility (mole fraction) (in isopropanol, 318.15 K) was 0.00454 and the solubility (mole fraction) (in isopropanol, 323.15 K) was 0.00494. It also gave a solubility (mole fraction) (in methanol, 283.15 K) of 0.000793, a solubility (mole fraction) (in methanol, 288.15 K) of 0.000814 and a solubility (mole fraction) (in methanol, 293.15 K) of 0.000848. It also gave a solubility (mole fraction) (in methanol, 298.15 K) of 0.000891, a solubility (mole fraction) (in methanol, 303.15 K) of 0.000935 and a solubility (mole fraction) (in methanol, 308.15 K) of 0.000984. The solubility (mole fraction) (in methanol, 313.15 K) was 0.00105, the solubility (mole fraction) (in methanol, 318.15 K) was 0.00114 and the solubility (mole fraction) (in methanol, 323.15 K) was 0.00125. For the same molecule, the solubility (mole fraction) (in methyl acetate, 283.15 K) was 0.00174, the solubility (mole fraction) (in methyl acetate, 288.15 K) was 0.00194 and the solubility (mole fraction) (in methyl acetate, 293.15 K) was 0.00223. It also gave a solubility (mole fraction) (in methyl acetate, 298.15 K) of 0.00263, a solubility (mole fraction) (in methyl acetate, 303.15 K) of 0.00292 and a solubility (mole fraction) (in methyl acetate, 308.15 K) of 0.00332. For the same molecule, the solubility (mole fraction) (in methyl acetate, 313.15 K) was 0.00387, the solubility (mole fraction) (in methyl acetate, 318.15 K) was 0.00472 and the solubility (mole fraction) (in methyl acetate, 323.15 K) was 0.00545. It also gave a solubility (mole fraction) (in n-butanol, 283.15 K) of 9.12e-05, a solubility (mole fraction) (in n-butanol, 288.15 K) of 0.000142 and a solubility (mole fraction) (in n-butanol, 293.15 K) of 0.000221. The solubility (mole fraction) (in n-butanol, 298.15 K) was 0.000282, the solubility (mole fraction) (in n-butanol, 303.15 K) was 0.000372 and the solubility (mole fraction) (in n-butanol, 308.15 K) was 0.000468. The solubility (mole fraction) (in n-butanol, 313.15 K) was 0.000585, the solubility (mole fraction) (in n-butanol, 318.15 K) was 0.00068 and the solubility (mole fraction) (in n-butanol, 323.15 K) was 0.000838. For the same molecule, the solubility (mole fraction) (in n-propanol, 283.15 K) was 0.000187, the solubility (mole fraction) (in n-propanol, 288.15 K) was 0.000226 and the solubility (mole fraction) (in n-propanol, 293.15 K) was 0.000268. It also gave a solubility (mole fraction) (in n-propanol, 298.15 K) of 0.000349, a solubility (mole fraction) (in n-propanol, 303.15 K) of 0.000515 and a solubility (mole fraction) (in n-propanol, 308.15 K) of 0.00069. It also gave a solubility (mole fraction) (in n-propanol, 313.15 K) of 0.000817, a solubility (mole fraction) (in n-propanol, 318.15 K) of 0.0009 and a solubility (mole fraction) (in n-propanol, 323.15 K) of 0.00101.
